pKi: −log10 of the molar value.
Experiments:
[1] = system: M5076 transplantable murine reticulum cell sarcoma; details: for ILS: comparator drugs, dose not given; for antitumor activity in the M5076 model: in words
[2] = system: HCT-15 human colon carcinoma; experiment: HCT-15 human colon carcinoma xenografts; assay type: in vivo; details: in words
Source text: HCT-15 is a human colon carcinoma derived cell line. It is MDR positive, and expresses both mutant p53 and oncogenic K-ras. The HCT-15 cell line has one of the highest levels of mdr-1/P-glycoprotein expression of cells from the NCI tumor cell line panel.
Effect of Cytotoxic Agents on the Growth of HCT-15 Human Colon Carcinoma Xenografts

[3] = system: C26 colon tumors; experiment: C26 colon tumors grown in the flank of CDF-1 mice; assay type: in vivo; details: comparator, regimen not given
[4] = system: NCI-H460 human non-small cell lung carcinoma; experiment: NCI-H460 xenograft model; assay type: in vivo; details: in words
Source text: NCI-H460 is a human non-small cell lung carcinoma derived cell line. It is MDR negative, has wild type p53, and contains an oncogenic K-ras mutation.

[5] = molecular target: biotinylated bovine brain tubulin

Structure (SMILES) | ILS [1] [%] | antitumor activity in the M5076 model [1] | efficacy in HCT-15 xenografts [2] | efficacy against C26 colon tumors [3] | efficacy in the NCI-H460 xenograft model [4] | pKi ([5]; competition of [3H]colchicine) | displacement of [3H]colchicine from the colchicine site of tubulin β-subunits ([5]; in words)
COc1cccc2c1C(=O)c1c(O)c3c(c(O)c1C2=O)C[C@@](O)(C(=O)CO)C[C@@H]3O[C@H]1C[C@H](N)[C@H](O)[C@H](C)O1 [doxorubicin] | 13 | only marginally active | – | – | – | – | –
CC(=O)O[C@H]1C(=O)[C@@]2(C)[C@H]([C@H](OC(=O)c3ccccc3)[C@]3(O)C[C@H](OC(=O)[C@H](O)[C@@H](NC(=O)c4ccccc4)c4ccccc4)C(C)=C1C3(C)C)[C@]1(OC(C)=O)CO[C@@H]1C[C@@H]2O [paclitaxel, reference compound] | – | resistant | not efficacious | not efficacious | lacked activity | – | –
CC[C@]1(O)C[C@H]2CN(CCc3c([nH]c4ccccc34)[C@@](C(=O)OC)(c3cc4c(cc3OC)N(C=O)[C@H]3[C@@](O)(C(=O)OC)[C@H](OC(C)=O)[C@]5(CC)C=CCN6CC[C@]43[C@@H]65)C2)C1 [vincristine, reference compound] | 17 | only marginally active | not efficacious | – | lacked activity | – | –
O=P1(N(CCCl)CCCl)NCCCO1 (stereo not shown) [cyclophosphamide] | – | sensitive | – | – | – | – | –
CC[C@]1(O)C[C@@H]2CN(CCc3c([nH]c4ccccc34)[C@@](C(=O)OC)(c3cc4c(cc3OC)N(C)[C@H]3[C@@](O)(C(=O)OC)[C@H](OC(C)=O)[C@]5(CC)C=CCN6CC[C@]43[C@@H]65)C2)C1 [vinblastine] | – | – | – | – | – | < 4.00 | do not displace

Source: patent US20050267166A1, “Continuous dosing regimen” (priority 2004, published 2005)
